“And” between values parts separate entries of the source, which are not always exact repeats. Identical values can stand only once. Like-named read-outs stand apart in the source and are kept apart here. One block for each substance: values may come before it.
Experiments:
[1] = molecular target: immobilised Aβ fibrils / fibrillar end; conditions: cited from earlier work
From the text: Table 1 Relative change of association and dissociation rates of Aβ1–40 wt and the His‐Ala Aβ variants, and the potentiation of Aβ fibril formation as a function of lowering the pH. RA, Relative association; RD, Relative dissociation; PnF, Potentiation factor KD(pH7.4)/KD(pH5.5) | column: pH 7.4 / KD (nM); pH 5.5 / KD (nM) || The formation of Aβ fibrils requires an initial nucleation event, and fibril elongation involves the addition of monomers to an existing fibril. […] The KD for Aβ1–40 can be as much as 120 times lower at pH 4.5 than pH 7.4. […] It is therefore of interest to elucidate the stabilising factors associated with fibril stability and the potentiating ... || (+ 3 further places)

[2] = molecular target: Amyloid β 1–40 H6A, H13A, H14A; assay: SPR; preformed fibrils immobilised on a CM5 chip by amine coupling (3500 RU), probed with monomers of the same variant; monomer onto fibril end; 25 °C, 20 μL/min, 20 mM phosphate pH 7.4, 150 mM NaCl; slow phase of dissociation only; KD = RD/RA x KD of Aβ1-40 wt (100 nM, from earlier work)
[3] = molecular target: Amyloid β 1–40 H6A, H13A, H14A; assay: SPR; preformed fibrils immobilised on a CM5 chip by amine coupling (3500 RU), probed with monomers of the same variant; monomer onto fibril end; 25 °C, 20 μL/min, 20 mM acetate pH 5.5, 150 mM NaCl; slow phase of dissociation only; KD = RD/RA x KD of Aβ1-40 wt (1 nM, from earlier work)
[4] = tested on: immobilised Aβ fibrils / fibrillar end; assay: Fibril stability (KD, RD/RA, potentiation factor) from SPR association and dissociation; type: binding; conditions: 25 °C, relative to Aβ1–40 wt
Procedure: (§1) The interaction study between the fibrillar form of Aβ and its monomeric form was performed using a BIAcore® 3000 biosensor (GE Healthcare®, Uppsala, Sweden) equipped with a CM5 sensor chip (GE Healthcare®). First, the fibrillar form of Aβ was immobilised at a density of 3500 response units (RUs) on the dextran layer of the chip using standard amino coupling reagents at pH 4.0. All SPR experiments were performed at 25 °C at a flow rate of 20 μL·min^−1 in either a 20 mM phosphate buffer (pH 7.4) or 20 mM acetate buffer (pH 5.5). All experiments were performed in the presence of 150 mM NaCl, which represents a physiological ion‐strength.
(§2) All sensograms were corrected for nonspecific interactions using a reference surface according to standard procedures 16.
While a simple interaction between, for example, a receptor and ligand can easily be determined through saturation experiments, this cannot be done with polymers since they, per definition, cannot be saturated.
This problem can, however, be circumvented by defining the concentration of free monomers where the fibrils are at steady state, i.e. the concentration of free monomers where neither association nor dissociation can be detected. We have previously shown that the KD for Aβ1–40 wt at neutral pH is around 100 nM and around 1 nM at pH 5.5 11, 13. The KD at neutral pH has also been investigated by Hasegawa and co‐workers 14 with similar results. All figures used here are therefore given as relative values to the KD for Aβ1–40 wt corresponding to 100 nM at neutral pH and 1 nM at pH 5.5.
Multiplying the relative RD/RA with the KD for Aβ 1–40 wt will then give the KD for the histidine derivatives.

[5] = tested on: corresponding immobilised fibrils (fibrillar form of Aβ); assay: SPR dissociation rate k(off) of Aβ fibrils, slow phase, relative to Aβ1–40 wt; type: binding; conditions: for RD, relative dissociation (k(off) versus Aβ1–40 wt): 150 mM NaCl, 25 °C, after 2 μM monomer injection, slow phase, points before 100 s excluded, one exponential decay, Aβ1–40 wt = 1
Procedure: (§3) Recombinant variants of Aβ1–40, Aβ1–40 H6A, Aβ1–40 H13A, Aβ1–40 H14A and Aβ1–40 H6A, H13A, H14A were obtained from AlexoTech (Umeå, Sweden). All lyophilised peptides were solubilised in 20 mM NaOH and separated by size‐exclusion chromatography (Superdex 10/300, GE Life Science, Uppsala, Sweden) in PBS with 2 mM EDTA, 5 mM NaOH and 150 mM NaCl. The pH of all purified peptide solutions was adjusted using a stock solution of phosphate or acetate buffer to give a final buffer concentration corresponding to 20 mM phosphate (pH 7.4) or acetate (pH 5.5) and 150 mM NaCl.
as §1, §2
Note that the dissociation phase exposes a biphasic curvature. This is highly representative and frequently observed when performing these kinds of experiments. […] All analyses of decay rates within this work are therefore exclusively focused on the slower second phase of dissociation.
In contrast to the association rate, kon, the rate of dissociation, koff, is independent of the concentration of monomers. Subsequent to probing, the immobilised fibrils with free monomers, the rate of dissociation can be seen as a decrease in the signal over time.
Because the latter part of the curve, representing the slower phase of dissociation (indicated by arrow 3 Fig. 1), strongly dominates the interaction strength, we have exclusively focused on this part, and no points before 100 s were included in the curve. The dissociation curve could then be fitted to a one exponential decay.

[6] = tested on: corresponding immobilised fibrils (fibrillar form of Aβ); assay: SPR association rate k(on) of Aβ monomers onto immobilised fibrils, relative to Aβ1–40 wt; type: binding; conditions: for RA, relative association (k(on) versus Aβ1–40 wt): 150 mM NaCl, 25 °C, 20 μL·min^−1, CM5 chip, fibrils at 3500 RU, end state after 60 s injection, Aβ1–40 wt = 1
Procedure: as §3, §1
Due to the polymeric nature of amyloid fibrils, the covalent immobilisation on the sensor chip, likely only occurs in minor fraction of the accessible amino groups. This treatment is therefore not anticipated to influence the overall incorporation of monomers in a significant manner. However, the influence from using immobilised fibrils or the dextran layer cannot be fully excluded and should therefore be disclosed.
as §2
Probing free monomeric Aβ against immobilised fibrils using SPR is a frequently used technique for measuring the intrinsic kinetic properties of Aβ polymerisation 11, 14, 17, 18, 19.
Fibrils from recombinant variants of Aβ1–40, Aβ1–40 H6A, Aβ1–40 H13A, Aβ1–40 H14A and Aβ1–40 H6A, H13A, H14A were prepared by prolonged incubation in either PBS (pH 7.4) or acetate buffer pH 5.5 containing 150 mM NaCl. Fibrils immobilised on a CM5 chip were then probed with their monomeric counterpart at different concentrations of Aβ monomers and analysed by SPR. Samples were injected for exactly 60 s and the maximal value at the end state of each injection (indicated by arrow 1 in Fig. 1A) was plotted as a function of the monomeric concentration, Fig. 2. This generates an association rate at each point of measurement. A guideline is given in the figures to illustrate the linearity.
By comparing the rate between the different Aβ variants, it is possible to determine relative differences in k(on).

Amyloid β 1–40 H13A [7] = assay: SPR; preformed fibrils immobilised on a CM5 chip by amine coupling (3500 RU), probed with monomers of the same variant; monomer onto fibril end; 25 °C, 20 μL/min, 20 mM phosphate pH 7.4, 150 mM NaCl; slow phase of dissociation only; KD = RD/RA x KD of Aβ1-40 wt (100 nM, from earlier work)
Amyloid β 1–40 H13A [8] = assay: SPR; preformed fibrils immobilised on a CM5 chip by amine coupling (3500 RU), probed with monomers of the same variant; monomer onto fibril end; 25 °C, 20 μL/min, 20 mM acetate pH 5.5, 150 mM NaCl; slow phase of dissociation only; KD = RD/RA x KD of Aβ1-40 wt (1 nM, from earlier work)

Substance: Aβ1–42: one of the two dominant forms of amyloid β
critical concentration (KD), in words ([1]; neutral pH, compared with Aβ1–40): slightly lower

Substance: Amyloid β 1–40 H6A, H13A, H14A (peptide)
Kd [2]: 1230 nM
RA (association rate relative to Aβ1-40 wt) [2]: 0.22
RD (dissociation rate relative to Aβ1-40 wt) [2]: 2.7
Kd [3]: 5.31 nM
RA (association rate relative to Aβ1-40 wt) [3]: 1.57
RD (dissociation rate relative to Aβ1-40 wt) [3]: 8.33

Substance: Aβ1–40 H14A
RD/RA ([4]; pH 7.4, 150 mM NaCl): 7.94
RD, relative dissociation (k(off) versus Aβ1–40 wt) ([5]; pH 5.5, 20 mM acetate): 2.22
RD, relative dissociation (k(off) versus Aβ1–40 wt) ([5]; pH 7.4, 20 mM phosphate): 2.70
RA, relative association (k(on) versus Aβ1–40 wt) ([6]; pH 5.5, 20 mM acetate): 1.01
RA, relative association (k(on) versus Aβ1–40 wt) ([6]; pH 7.4, 20 mM phosphate): 0.34

Further lines, with some results ahead:

RD/RA ([4]; pH 5.5, 150 mM NaCl): 1
RD/RA ([4]; pH 7.4, 150 mM NaCl): 1
Substance: Aβ1–40 wt: wild‐type amyloid β 1–40, recombinant, obtained from AlexoTech (Umeå, Sweden) [reference compound]
RD, relative dissociation (k(off) versus Aβ1–40 wt) ([5]; pH 5.5, 20 mM acetate): 1
RD, relative dissociation (k(off) versus Aβ1–40 wt) ([5]; pH 7.4, 20 mM phosphate): 1
stabilisation / dissociation on lowering the pH, in words ([5]; pH 7.4 to 5.5): significantly stabilised by the decrease in pH
Kd ([1]; neutral pH (pH 7.4), reference value for the relative KDs, read-out: KD (critical concentration)): ~100 nM and 100 nM
Kd ([1]; neutral pH, read-out: critical concentration (KD)): ~100 nM
decrease of KD at pH 4.5 versus pH 7.4 (times lower) ([1]; pH 4.5 vs pH 7.4, "as much as"): ≤ 120 times
Kd ([1]; pH 5.5, reference value for the relative KDs, read-out: KD): ~1 nM and 1 nM
RA, relative association (k(on) versus Aβ1–40 wt) ([6]; pH 5.5, 20 mM acetate): 1
rate of association, in words ([6]; pH 5.5 versus pH 7.4): much faster rate of association
RA, relative association (k(on) versus Aβ1–40 wt) ([6]; pH 7.4, 20 mM phosphate): 1

Kd (Amyloid β 1–40 H13A [7]): 716 nM
RA (association rate relative to Aβ1-40 wt) (Amyloid β 1–40 H13A [7]): 0.31
RD (dissociation rate relative to Aβ1-40 wt) (Amyloid β 1–40 H13A [7]): 2.22
Kd (Amyloid β 1–40 H13A [8]): 2.11 nM
RA (association rate relative to Aβ1-40 wt) (Amyloid β 1–40 H13A [8]): 1.01
RD (dissociation rate relative to Aβ1-40 wt) (Amyloid β 1–40 H13A [8]): 2.13
Substance: Amyloid β 1–40 H13A (peptide)
